For one assay, the system named is MCF7. Put plainly: Cytotoxicity against human MCF7 cells after 72 hrs by MTT assay. In kind it is functional, cell-based. On the technique in general: Tetrazolium assays rely on reduction of a dye to a coloured formazan, in cell work by metabolically active cells.
Assay [1] concerns A549. Put plainly: Cytotoxicity against human A549 cells after 72 hrs by MTT assay. It is filed as functional, cell-based.
For the next assay, the system named is HeLa. As to the kind of experiment: Cytotoxicity against human HeLa cells after 72 hrs by MTT assay. In kind it is functional, cell-based.
The target of assay [2] is Hepatocyte growth factor receptor (Homo sapiens, UniProt P08581). As to the kind of experiment: Inhibition of c-Met (unknown origin) by mobility shift assay.
Chain of Hepatocyte growth factor receptor (P08581 whole entry): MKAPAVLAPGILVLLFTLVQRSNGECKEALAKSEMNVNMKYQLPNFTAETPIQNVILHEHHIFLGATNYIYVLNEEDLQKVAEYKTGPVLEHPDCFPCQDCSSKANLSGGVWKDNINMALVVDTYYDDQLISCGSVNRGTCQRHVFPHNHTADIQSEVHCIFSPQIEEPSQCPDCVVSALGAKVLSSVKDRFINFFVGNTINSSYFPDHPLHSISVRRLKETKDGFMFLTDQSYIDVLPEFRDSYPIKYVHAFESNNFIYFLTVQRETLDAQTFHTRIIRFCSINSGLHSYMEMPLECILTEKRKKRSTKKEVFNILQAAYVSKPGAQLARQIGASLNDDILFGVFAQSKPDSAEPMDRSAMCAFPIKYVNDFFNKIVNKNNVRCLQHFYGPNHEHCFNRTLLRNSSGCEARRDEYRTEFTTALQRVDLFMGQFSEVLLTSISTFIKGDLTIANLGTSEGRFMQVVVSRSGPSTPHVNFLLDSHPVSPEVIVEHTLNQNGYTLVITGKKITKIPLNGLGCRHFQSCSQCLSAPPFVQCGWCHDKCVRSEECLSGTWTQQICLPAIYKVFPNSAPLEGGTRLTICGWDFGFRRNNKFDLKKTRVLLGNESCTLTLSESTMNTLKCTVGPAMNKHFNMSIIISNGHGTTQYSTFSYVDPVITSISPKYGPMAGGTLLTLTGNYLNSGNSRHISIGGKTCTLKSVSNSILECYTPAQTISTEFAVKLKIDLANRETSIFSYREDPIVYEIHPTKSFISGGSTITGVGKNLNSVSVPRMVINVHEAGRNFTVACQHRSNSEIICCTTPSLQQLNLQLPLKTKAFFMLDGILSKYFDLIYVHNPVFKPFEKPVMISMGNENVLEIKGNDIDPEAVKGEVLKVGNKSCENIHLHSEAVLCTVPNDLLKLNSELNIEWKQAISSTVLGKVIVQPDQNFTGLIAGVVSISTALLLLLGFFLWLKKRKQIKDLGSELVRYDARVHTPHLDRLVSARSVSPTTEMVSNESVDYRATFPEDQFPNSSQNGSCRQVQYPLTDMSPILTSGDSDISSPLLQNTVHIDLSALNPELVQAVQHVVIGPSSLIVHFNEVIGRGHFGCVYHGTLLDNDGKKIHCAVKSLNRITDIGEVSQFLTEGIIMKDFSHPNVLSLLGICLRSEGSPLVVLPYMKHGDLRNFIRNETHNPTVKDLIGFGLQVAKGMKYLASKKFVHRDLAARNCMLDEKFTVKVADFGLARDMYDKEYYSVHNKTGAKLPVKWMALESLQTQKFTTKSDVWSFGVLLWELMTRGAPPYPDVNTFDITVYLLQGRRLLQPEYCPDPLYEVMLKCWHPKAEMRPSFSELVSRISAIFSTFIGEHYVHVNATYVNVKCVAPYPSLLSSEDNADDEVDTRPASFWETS
For assay [3], the system named is A549. As to the kind of experiment: Induction of cell cycle arrest in human A549 cells assessed as accumulation at S phase at 5 uM incubated for 24 hrs by propidium iodide staining based flow cytometry (reference value: 27.97 %). It is filed as functional. In general terms: A flow cytometer gives signals particle by particle.
Assay [4] relates to A549. Put plainly: Induction of cell cycle arrest in human A549 cells assessed as accumulation at G2 phase at 5 uM incubated for 24 hrs by propidium iodide staining based flow cytometry (reference value: 7.56 %). It is filed as functional.
Assay [5] deals with A549. As to the kind of experiment: Cytotoxicity against human A549 cells assessed as inhibition rate at 100 uM after 72 hrs by MTT assay relative to control. In kind it is functional.
Assay [6] has as its system A549. As to the kind of experiment: Cytotoxicity against human A549 cells assessed as inhibition rate at 33.33 uM after 72 hrs by MTT assay relative to control. It is filed as functional.
Assay [7] has as its system A549. As to the kind of experiment: Induction of cell cycle arrest in human A549 cells assessed as accumulation at G0/G1 phase at 5 uM incubated for 24 hrs by propidium iodide staining based flow cytometry (reference value: 64.47 %). In kind it is functional.
In assay [8] the test system is A549. Put plainly: Cytotoxicity against human A549 cells assessed as inhibition rate at 3.704 uM after 72 hrs by MTT assay relative to control. It is filed as functional.
Assay [9] has as its system A549. As to the kind of experiment: Cytotoxicity against human A549 cells assessed as inhibition rate at 11.11 uM after 72 hrs by MTT assay relative to control. It is filed as functional.
The test system of assay [10] is A549. As to the kind of experiment: Cytotoxicity against human A549 cells assessed as inhibition rate at 1.234 uM after 72 hrs by MTT assay relative to control. It is filed as functional.
Assay [11] relates to A549. Put plainly: Cytotoxicity against human A549 cells assessed as inhibition rate at 0.411 uM after 72 hrs by MTT assay relative to control. In kind it is functional.
Assay [12] deals with A549. As to the kind of experiment: Cytotoxicity against human A549 cells assessed as inhibition rate at 0.137 uM after 72 hrs by MTT assay relative to control. It is filed as functional.
Assay [13] relates to A549. Put plainly: Cytotoxicity against human A549 cells assessed as reduction in cell survival after 72 hrs by MTT assay. As to conditions: dose 0.137-100 µM; call rule not given here. It is filed as functional, cell-based.
Where [14] appears, read: Homo sapiens, MCF7, 72 h, read-out: IC50.
Where [15] appears, read: Homo sapiens, A549, 72 h, read-out: IC50.

Consider `O=C(Nc1ccc(Oc2ncnc3[nH]ccc23)c(F)c1)c1cc2cccnc2n(-c2ccc(Br)cc2)c1=O`, for which the IC50 (usually the midpoint of a concentration-inhibition curve) in the assay with MCF7 (setting [14]) is 27 µM; with A549 [1] (setting [15]), 27.3 µM; in the assay with HeLa it was 19.9 µM.
As for `Cn1ccc2c(Oc3ccc(NC(=O)c4cc5cccnc5n(-c5ccc(C(F)(F)F)cc5Cl)c4=O)cc3F)ncnc21`, the values for the IC50 result in the assay with MCF7 (mcf7), with A549 [1] (a549) and with HeLa were “Not Active”, “Not Active” and 170 µM, respectively.
For the compound `Cn1ccc2c(Oc3ccc(NC(=O)c4cc5cccnc5n(-c5ccc(F)cc5)c4=O)cc3F)ncnc21`, the IC50 in [2] turned out to be 0.701 µM; in the assay on MCF7 (setting [14]) it was 11.9 µM; with A549 [1] (setting [15]), 7.32 µM; with HeLa it was 4.25 µM.
Regarding `Cn1ccc2c(Oc3ccc(NC(=O)c4cc5cccnc5n(-c5ccc(Cl)cc5)c4=O)cc3)ncnc21`, the IC50 was 95 µM in the assay with MCF7 (setting [14]), 75.5 µM with A549 [1] (setting [15]) and 49.9 µM with HeLa.
Consider `CN1CCN(C2CCN(C(=O)Nc3cc(Oc4ccc(NC(=O)C5(C(=O)Nc6ccc(F)cc6)CC5)c(F)c4)ccn3)CC2)CC1` [GOLVATINIB], for which the values for the Activity in the assay with A549 [3], with A549 [4] and with A549 [7] were 19.82%, 6.53% and 73.65%, respectively. Besides, in the assay on A549 [5], the inhibition – broadly, the relative decrease from the control value, in per cent – at 100 µM worked out at 85.1%. The inhibition at 33.33 µM with A549 [6] is 76.5%. For the same compound, the inhibition at 3.704 µM with A549 [8] came out at 35.3%. In addition, in the assay with A549 [9], the inhibition at 11.11 µM is 47.5%. The inhibition at 1.234 µM with A549 [10] stood at 21.4%. In the assay with A549 [11], the inhibition at 0.411 µM was 17.2%. For the same compound, in the assay on A549 [12], the inhibition at 0.137 µM is 13.7%. Also, the figures for the IC50 with MCF7 (setting [14]), with A549 [1] (setting [15]) and in the assay on HeLa were 15.4 µM, 7.7 µM and 4.23 µM, respectively.
Turning to `Cn1ccc2c(Oc3ccc(NC(=O)c4cc5cccnc5n(-c5ccccc5)c4=O)cc3)ncnc21`, the IC50 in the assay with MCF7 (setting [14]) was 88.4 µM; with A549 [1] (setting [15]), 66.2 µM; in the assay on HeLa it was 59.8 µM.
As for `O=C(Nc1ccc(Oc2ncnc3[nH]ccc23)c(F)c1)c1cc2cccnc2n(-c2ccc(Cl)cc2)c1=O`, the IC50 came out at 1.18 µM in assay [2], 45 µM in the assay with MCF7 (setting [14]), 35.5 µM in the assay with A549 [1] (setting [15]) and 23.9 µM in the assay on HeLa.
Consider `Cn1ccc2c(Oc3ccc(NC(=O)c4cc5cccnc5n(-c5ccc(C(F)(F)F)c(Cl)c5)c4=O)cc3F)ncnc21`, for which the IC50 entry with MCF7 (mcf7) was “Not Active”; in the assay on A549 [1] (setting [15]), 320 µM; with HeLa, 156 µM.
In the case of `O=C(Nc1ccc(Oc2ncnc3[nH]ccc23)c(F)c1)c1cc2cccnc2n(-c2ccc(Br)cc2F)c1=O`, the IC50 in the assay on MCF7 (setting [14]) was determined as 102 µM; with A549 [1] (setting [15]), 218 µM; in the assay on HeLa, 87.8 µM.
As for `O=C(Nc1ccc(Oc2ncnc3[nH]ccc23)c(F)c1)c1cc2cccnc2n(-c2ccc(C(F)(F)F)cc2Cl)c1=O`, the IC50 was found to be 214 µM in the assay on MCF7 (setting [14]), 283 µM in the assay with A549 [1] (setting [15]) and 96.8 µM in the assay on HeLa.
With `O=C(Nc1ccc(Oc2ncnc3[nH]ccc23)c(F)c1)c1cc2cccnc2n(-c2ccc(F)cc2)c1=O`, the Activity entry in the assay with A549 [13] was “Dose-dependent effect”; in the assay on A549 [3] it was 21.11%; with A549 [4] it was 5.43%; with A549 [7], 73.46%. In the assay on A549 [5], the inhibition at 100 µM stood at 90.5%. Also, the inhibition at 33.33 µM in the assay with A549 [6] stood at 80.6%. Further, the inhibition at 3.704 µM in the assay with A549 [8] turned out to be 42.3%. In the assay with A549 [9], the inhibition at 11.11 µM came to 54.5%. For the same compound, the inhibition at 1.234 µM in the assay with A549 [10] is 23.4%. The inhibition at 0.411 µM with A549 [11] is 18.1%. Moreover, the IC50 in assay [2] stood at 0.612 µM; in the assay on MCF7 (setting [14]) it was 9.23 µM; with A549 [1] (setting [15]) it was 5.29 µM; with HeLa, 3.72 µM. The inhibition at 0.137 µM in the assay on A549 [12] worked out at 12.7%.
As to `Cn1ccc2c(Oc3ccc(NC(=O)c4cc5cccnc5n(-c5ccc(C(F)(F)F)cc5Cl)c4=O)cc3)ncnc21`, the concentration for half-maximal inhibition (IC50) entry is “Not Active” in the assay on MCF7 (mcf7), 364 µM in the assay on A549 [1] (setting [15]) and 174 µM in the assay with HeLa.
For the compound `COc1ccc(-n2c(=O)c(C(=O)Nc3ccc(Oc4ncnc5c4ccn5C)cc3)cc3cccnc32)cc1`, the IC50 stood at 105 µM with MCF7 (setting [14]), 83.2 µM in the assay with A549 [1] (setting [15]) and 65.8 µM with HeLa.
The like results for `Cn1ccc2c(Oc3ccc(NC(=O)c4cc5cccnc5n(-c5ccc(Br)cc5)c4=O)cc3)ncnc21` were, in that order, 79.4 µM, 52.2 µM and 43.8 µM.
Consider `Cn1ccc2c(Oc3ccc(NC(=O)c4cc5cccnc5n(-c5ccc(C(F)(F)F)c(Cl)c5)c4=O)cc3)ncnc21`, for which the figures for the IC50 result in the assay with MCF7 (mcf7), in the assay on A549 [1] (a549) and in the assay with HeLa were “Not Active”, “Not Active” and 289 µM, respectively.
For `Cn1ccc2c(Oc3ccc(NC(=O)c4cc5cccnc5n(-c5ccc(Br)cc5)c4=O)cc3F)ncnc21`, the IC50 stood at 59.4 µM with MCF7 (setting [14]), 42.2 µM in the assay on A549 [1] (setting [15]) and 33.8 µM in the assay on HeLa.
As to `Cn1ccc2c(Oc3ccc(NC(=O)c4cc5cccnc5n(-c5ccc(Cl)cc5)c4=O)cc3F)ncnc21`, the IC50 stood at 3.79 µM in [2], 75 µM with MCF7 (setting [14]), 55.5 µM in the assay with A549 [1] (setting [15]) and 43.9 µM in the assay with HeLa.
On to `Cn1ccc2c(Oc3ccc(NC(=O)c4cc5cccnc5n(-c5ccccc5)c4=O)cc3F)ncnc21`, for which the IC50 was found to be 73.4 µM with MCF7 (setting [14]), 63.2 µM in the assay with A549 [1] (setting [15]) and 51.8 µM in the assay on HeLa.
For the compound `O=C(Nc1ccc(Oc2ncnc3[nH]ccc23)c(F)c1)c1cc2cccnc2n(-c2ccccc2)c1=O`, the IC50 in the assay with MCF7 (setting [14]) amounted to 45 µM; with A549 [1] (setting [15]), 45.5 µM; in the assay with HeLa, 36.9 µM.

For the origin of these results see ChEMBL document CHEMBL4673365, “Design, synthesis and biological evaluation of novel 4-(pyrrolo[2,3-d]pyrimidine-4-yloxy)benzamide derivatives as potential antitumor agents” (Bioorg Med Chem Lett, 2021).
